3 compounds from patent publication EP4603506A1, “NOVEL GLP-1 RECEPTOR ANTAGONIST, AND PHARMACEUTICAL COMPOSITION FOR PREVENTING OR TREATING CONGENITAL […] OR HYPOGLYCEMIA, COMPRISING SAME” (Hanmi Pharm. Co., Ltd., priority 2022, dated 2024) can be followed below.

For one experiment, the target named is human GLP-1R (hGLP-1R) (Homo sapiens, UniProt P43220). The experiment is described as follows: In vitro cell activity: cAMP inhibition (LANCE Ultra cAMP kit) in CHO cells expressing human GLP-1R, with GLP-1 added. In kind it is cell-based. The following applies: relative activity from IC50 of cAMP inhibition; 0.1 nM GLP-1 added; comparative substance exendin-3 (9-39) amide = 100. As for the experimental part:
The human GLP-1R-expressed CHO cells were cultured in a 384-well plate for 24 hours. Thereafter, the culture was removed, and 10 µL of each serially diluted substance was added to the plate, followed by incubation at room temperature for 30 minutes. Then, 5 µL of Eu-cAMP tracer was added, and then 5 µL of a buffer containing cAMP antibodies was added, followed by incubation at room temperature for 60 minutes. […]

For the next experiment, the system named is C57BL/6N mice. The experiment is described as follows: Oral glucose tolerance test (OGTT), blood glucose levels. In kind it is in vivo. The following applies: 2 g/kg oral glucose after 4-hour fasting, 3690 and 7380 µg/kg subcutaneous, 24 hours before OGTT, versus vehicle control, FIG. 1. The protocol: The test was conducted on 8-week-old male mice, and during the study, five mice were housed in each group and had free access to drinking water. The lights were turned off from 6 PM to 6 AM.
The administration of the drugs was completed 24 hours before the oral glucose tolerance test (OGTT) for Groups 1, 3, and 4, and 30 minutes before for Group 2. Particularly, the dose was expressed as a value based on the value obtained by subtracting the mass of the fatty acid moieties from the total mass of the acylated GLP-1 receptor antagonist analog conjugate, that is, the value obtained by summing the mass of each of only polypeptide moieties.
As for the OGTT, all the groups were orally administered 2 g/kg glucose once after 4-hour fasting, and then blood samples were consecutively collected from the tail vein at specific time intervals (0, 15, 30, 60, and 120 minutes) to measure blood glucose levels by a OneTouch blood glucose meter (OneTouch Select®, LifeScan, USA). Statistical analysis was performed using an unpaired t-test to compare between the control group and the test groups (# ~ ###p < 0.05 ~ 0.001).

The subject of experiment [1] is PBH rat model (VSG, SD rats). The experiment is described as follows: Mixed meal tolerance test (MMTT) in postbariatric hypoglycemia (PBH) rat model induced by vertical sleeve gastrectomy (VSG). In kind it is in vivo. The following applies: MMTT 4 hours after 3720 µg/kg (1070.5 nmol/kg) subcutaneous, versus excipient, FIG. 2. The protocol: A PBH rat model was established by performing sham operations or VSG surgery on SD rats. The rats were fed a high-fat diet (HFD) for 19 weeks, and divided randomly into two groups with 10 animals each (an excipient control group and a GLP-1R antagonist analog conjugate administered group). […] As for the MMTT, all the groups were orally administered 2 mL of a mixed meal (Ensure Plus®, Abbott, USA) once after 5-hour fasting, and then blood samples were consecutively collected at specific time intervals (0, 15, 30, 45, 60, and 120 minutes) to measure blood glucose levels (GDoctor, Allmedicus Co., Korea). Statistical analysis was performed using the one-way ANOVA to compare between the VSG rat excipient group (control group) and the test groups (* ~ ***p < 0.05 ~ 0.001). Particularly, the dose was expressed as a value based on the value obtained by subtracting the mass of the fatty acid moieties from the total mass of the acylated GLP-1 receptor antagonist analog conjugate, that is, the value obtained by summing the masses of each of only polypeptide moieties.
Additionally, 15 minutes after the MMTT test, plasma was isolated from blood samples, and the insulin secretion level was measured using a rat insulin ELISA kit ([…], Merck Millipore, USA).

human GLP-1R (hGLP-1R), sequence (P43220 24-463): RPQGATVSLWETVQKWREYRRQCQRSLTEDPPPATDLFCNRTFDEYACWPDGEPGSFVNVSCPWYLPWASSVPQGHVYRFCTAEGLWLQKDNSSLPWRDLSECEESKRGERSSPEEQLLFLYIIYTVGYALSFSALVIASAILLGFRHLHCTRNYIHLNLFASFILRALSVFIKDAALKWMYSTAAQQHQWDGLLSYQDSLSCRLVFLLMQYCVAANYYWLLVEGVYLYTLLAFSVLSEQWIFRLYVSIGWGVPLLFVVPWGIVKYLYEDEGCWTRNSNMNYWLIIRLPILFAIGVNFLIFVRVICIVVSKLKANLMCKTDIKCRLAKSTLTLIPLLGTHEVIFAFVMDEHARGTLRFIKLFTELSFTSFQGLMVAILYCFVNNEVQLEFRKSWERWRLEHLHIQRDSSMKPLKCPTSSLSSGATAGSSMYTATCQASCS

Take `CC[C@H](C)[C@H](NC(=O)[C@H](Cc1ccccc1)NC(=O)[C@H](CC(C)C)NC(=O)[C@H](CCCNC(=N)N)NC(=O)[C@H](C)NC(=O)[C@H](C)NC(=O)[C@H](CCC(=O)O)NC(=O)[C@H](CCC(=O)O)NC(=O)[C@H](CCC(=O)O)NC(=O)[C@H](CC(C)C)NC(=O)[C@H](Cc1ccc(O)cc1)NC(=O)[C@H](CO)NC(=O)[C@H](CO)NC(=O)[C@@H](NC(=O)[C@H](CC(=O)O)NC(C)=O)C(C)C)C(=O)N[C@@H](C)C(=O)N[C@@H](Cc1c[nH]c2ccccc12)C(=O)N[C@@H](CC(C)C)C(=O)N[C@H](C(=O)N[C@@H](CCCCNC(=O)COCCOCCNC(=O)COCCOCCNC(=O)CC[C@H](NC(=O)CCCCCCCCCCCCCCCCC(=O)O)C(=O)O)C(=O)NCC(=O)NCC(=O)N1CCC[C@H]1C(=O)N[C@@H](CO)C(=O)N[C@@H](CO)C(=O)NCC(=O)N[C@@H](C)C(=O)N1CCC[C@H]1C(=O)N1CCC[C@H]1C(=O)N1CCC[C@H]1C(=O)N[C@@H](CO)C(N)=O)C(C)C` [SEQ ID NO: 16]: the “In vitro activity compared with comparative substance (%)” value on human GLP-1R (hGLP-1R) worked out at 13.5%. Still for that read-out and setting: with `CC[C@H](C)[C@H](NC(=O)[C@H](Cc1ccccc1)NC(=O)[C@H](CC(C)C)NC(=O)[C@H](CCCNC(=N)N)NC(=O)[C@H](C)NC(=O)[C@H](C)NC(=O)[C@H](CCC(=O)O)NC(=O)[C@H](CCC(=O)O)NC(=O)[C@H](CCC(=O)O)NC(=O)[C@H](CC(C)C)NC(=O)[C@H](Cc1ccc(O)cc1)NC(=O)[C@H](CO)NC(=O)[C@H](CO)NC(=O)[C@H](CC(C)C)NC(=O)[C@H](CC(=O)O)NC(C)=O)C(=O)N[C@@H](CCC(=O)O)C(=O)N[C@@H](Cc1c[nH]c2ccccc12)C(=O)N[C@@H](CC(C)C)C(=O)N[C@@H](CCCCNC(=O)COCCOCCNC(=O)COCCOCCNC(=O)CC[C@H](NC(=O)CCCCCCCCCCCCCCCCC(=O)O)C(=O)O)C(=O)N[C@@H](CC(N)=O)C(=O)NCC(=O)NCC(=O)N1CCC[C@H]1C(=O)N[C@@H](CO)C(=O)N[C@@H](CO)C(=O)NCC(=O)N[C@@H](C)C(=O)N1CCC[C@H]1C(=O)N1CCC[C@H]1C(=O)N1CCC[C@H]1C(=O)N[C@@H](CO)C(N)=O` [SEQ ID NO: 14] the figure was 1.7%. For “DLSSYLEEEAVRLFIEWLKNGGPSSGAPPPSK(2) [SEQ ID NO: 17]”, the figures for the blood glucose levels result (in the experiment on C57BL/6N mice; in experiment [1]) were “increased the blood glucose levels in vivo compared with the control group at all the doses” and “significantly increased blood glucose levels in vivo compared with PBH rats administered the excipient”, respectively.
